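GI50 = concentration required for 50% inhibition of growth. The concentration for full growth arrest is given as TGI.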
How the values were obtained:
Assay in all cases: DTP human tumour cell line panel, 384-well format; in the data active = GI50 below about 0.43 µM; inactive = the rest
[1] = tested on: T-47D breast
[2] = tested on: SNB-19 CNS
[3] = tested on: MDA-MB-468 breast
[4] = tested on: MOLT-4 leukemia
[5] = tested on: A498 renal
[6] = tested on: UO-31 renal
[7] = tested on: 786-0 renal
[8] = tested on: MCF7 breast
[9] = tested on: TK-10 renal
[10] = tested on: NCI-H23 lung
[11] = tested on: SF-268 CNS
[12] = tested on: DU-145 prostate
[13] = tested on: CAKI-1 renal
[14] = tested on: NCI/ADR-RES ovarian
[15] = tested on: COLO 205 colon
[16] = tested on: HCC-2998 colon
[17] = tested on: SK-MEL-28 melanoma
[18] = tested on: SNB-75 CNS
[19] = tested on: SF-539 CNS
[20] = tested on: NCI-H322M lung
[21] = tested on: HOP-92 NSCLC
[22] = tested on: UACC-257 melanoma
[23] = tested on: K-562 leukemia
[24] = tested on: HCT-15 colon
[25] = tested on: MDA-MB-231 breast
[26] = tested on: NCI-H522 lung
[27] = tested on: KM12 colon
[28] = tested on: ACHN renal
[29] = tested on: EKVX NSCLC
[30] = tested on: NCI-H460 NSCLC
[31] = tested on: LOX IMVI melanoma
[32] = tested on: M14 melanoma
[33] = tested on: MDA-MB-435 melanoma
[34] = tested on: PC-3 prostate
[35] = tested on: RPMI-8226 leukemia
[36] = tested on: IGROV1 ovarian
[37] = tested on: CCRF-CEM leukemia
[38] = tested on: SR leukemia
[39] = tested on: HS 578T breast
[40] = tested on: HL-60(TB) leukemia
[41] = tested on: NCI-H226 lung
[42] = tested on: OVCAR-4 ovarian
[43] = tested on: SK-MEL-5 melanoma
[44] = tested on: A549 NSCLC
[45] = tested on: HT29 colon
[46] = tested on: SN12C renal
[47] = tested on: OVCAR-5 ovarian
[48] = tested on: SK-MEL-2 melanoma
[49] = tested on: HOP-62 NSCLC
[50] = tested on: UACC-62 melanoma

COc1cc(OC)c(F)c(COc2cnc(Nc3cnn(CCO)c3)nc2)c1F
1070 nM: TGI [45]
4740 nM: TGI [21]
2240 nM: TGI [10]
1580 nM: TGI [43]
3680 nM: TGI [11]
1240 nM: TGI [35]
1100 nM: TGI [23]
467 nM: TGI [18]
3820 nM: TGI [31]
2290 nM: TGI [41]
inactive: GI50 [1] 810 nM | GI50 [2] 681 nM | GI50 [6] 844 nM | GI50 [9] 714 nM | GI50 [10] 494 nM | GI50 [11] 491 nM | GI50 [12] 1600 nM | GI50 [14] 442 nM | GI50 [15] 454 nM | GI50 [16] 751 nM | GI50 [17] 741 nM | GI50 [20] 1790 nM | GI50 [21] 747 nM | GI50 [22] 2120 nM | GI50 [25] 657 nM | GI50 [28] 1020 nM | GI50 [29] 828 nM | GI50 [31] 485 nM | GI50 [34] 1250 nM | GI50 [36] 536 nM | GI50 [42] 8520 nM | GI50 [44] 1270 nM | GI50 [46] 1180 nM
1650 nM: TGI [13]
active: GI50 [3] 234 nM | GI50 [4] 187 nM | GI50 [5] 355 nM | GI50 [7] 425 nM | GI50 [8] 408 nM | GI50 [13] 353 nM | GI50 [18] 140 nM | GI50 [19] 340 nM | GI50 [23] 264 nM | GI50 [24] 386 nM | GI50 [26] 257 nM | GI50 [27] 327 nM | GI50 [30] 353 nM | GI50 [32] 239 nM | GI50 [33] 177 nM | GI50 [35] 307 nM | GI50 [37] 204 nM | GI50 [38] 41.1 nM | GI50 [39] 226 nM | GI50 [40] 140 nM | GI50 [41] 260 nM | GI50 [43] 383 nM | GI50 [45] 343 nM
658 nM: TGI [26]
411 nM: TGI [33]
272 nM: TGI [40]
1000 nM: TGI [30]
672 nM: TGI [39]
1500 nM: TGI [19]
356 nM: TGI [4]
397 nM: TGI [37]
> 100000 nM: TGI [1] | TGI [2] | TGI [5] | TGI [6] | TGI [7] | TGI [8] | TGI [9] | TGI [12] | TGI [16] | TGI [17] | TGI [20] | TGI [22] | TGI [24] | TGI [25] | TGI [28] | TGI [29] | TGI [34] | TGI [36] | TGI [42] | TGI [44]
514 nM: TGI [3]
1830 nM: TGI [14]
3410 nM: TGI [27]
165 nM: TGI [38]
709 nM: TGI [32]
3210 nM: TGI [15]
6330 nM: TGI [46]

OCCn1cc(-c2cnc3nnn(Cc4ccc5ncccc5c4)c3n2)cn1
inactive: GI50 [2] > 100000 nM | GI50 [3] > 100000 nM | GI50 [47] > 100000 nM | GI50 [6] > 100000 nM | GI50 [7] > 100000 nM | GI50 [8] > 100000 nM | GI50 [9] > 100000 nM | GI50 [10] > 100000 nM | GI50 [12] > 100000 nM | GI50 [15] > 100000 nM | GI50 [21] > 100000 nM | GI50 [23] > 100000 nM | GI50 [48] > 100000 nM | GI50 [49] > 100000 nM | GI50 [28] > 100000 nM | GI50 [32] > 100000 nM | GI50 [50] > 100000 nM | GI50 [36] > 100000 nM | GI50 [37] > 100000 nM | GI50 [41] > 100000 nM | GI50 [42] > 100000 nM | GI50 [46] > 100000 nM
> 100000 nM: TGI [2] | TGI [3] | TGI [47] | TGI [6] | TGI [7] | TGI [8] | TGI [9] | TGI [10] | TGI [12] | TGI [15] | TGI [21] | TGI [23] | TGI [48] | TGI [49] | TGI [28] | TGI [32] | TGI [50] | TGI [36] | TGI [37] | TGI [41] | TGI [42] | TGI [46]

From PubChem BioAssay (NCI)
